According to patent publication US20110294732A1, “ERYTHROPOLETIN COMPLEMENTATION OR REPLACEMENT” (Universite De Strasbourg, priority 2007, published 2011):
Several values for one entry are separate records, joined by “and”; a condition that tells them apart may be missing. Identical values can stand only once.

How the values were obtained:
Effort capacity test = assay type: in vivo, normal wild-type mice; settings: normal animals, maximum
Source text: The effort capacity of normal animals may be enhanced by up to 100% by ITPP administration, since more oxygen can be delivered to the working muscle.

[1] = Blood counts of mice after oral ingestion; assay type: in vivo
Source text: Blood from mice that ingested ITPP or IHP in water (for 4 days) or water only was collected on day 0, 7 and 11, in order to assess any differences in the blood count (and the amount of erythropoietin in the sera) of treated and control mice. […] The amount of blood from the other mice was not sufficient to determine the blood count.

[2] = Tolerability of ITPP injection in mice; assay type: in vivo, C57B1/6 mice
Experimental: (§1) Blood from C57B1/6 mice collected 2 hrs and 1 day after injection of 45, 60, 120 and 150 mM solutions of ITPP was measured for P50-shifts as reported. […] No animal died or seemed to suffer from the compound.

circulating RBC = experiment: P50 shift of circulating RBC after oral administration in drinking water; assay type: in vivo, C57BL/6 mice
Experimental: In experiments conducted in vivo in which ITPP was administered orally, ITPP was dissolved in drinking (not deionized) water at a 20 g/L-concentration (=27 mM, pH 7.0) and offered for drinking ad libitum. A significant shift of the P50 value of circulating RBCs was observed.
Twelve C57BL/6 mice drank ITPP over 4 days (about 25 ml/24 hrs). Seven Control mice drank either pure water (three mice), or a solution of IHP (inositol hexaphosphate without the internal pyrophosphate rings) at the same concentration and pH as ITPP (4 mice). […] Blood was collected from the tail vein of the 12 C57BL/6 mice on day 0 (before treatment started), 1, 2, 4, 6, 7, 8, 10, 11 and 12, in order to measure P50 values. […] Oral application of ITPP caused significant right shifts of P50 (up to 31%) in mice.
The 12 mice were observed over 12 days, the P50 values of their circulating RBC were measured almost daily. […] It appears that all mice ingesting the aqueous solution of ITPP present a shift of the P50 value of their circulating RBC, albeit with individual differences. FIG. 8 illustrates the individual differences in the P50 shift induced in the mice by ingestion of the aqueous solution of ITPP.

circulating RBCs = experiment: P50 shift of circulating RBCs after ip injection; assay type: in vivo, C57B1/6 mice; settings: for P50 Shift %, 2 h, Mean +/- SD / P50 Shift %, 24 h, Mean +/- SD / P50 Shift %, 2 h / P50 Shift %, 24 h: ip; for P50 Shift %, 2 h, Mean +/- SD / P50 Shift %, 24 h, Mean +/- SD: 5 animals; for P50 Shift %, 2 h / P50 Shift %, 24 h: single animal
Experimental: as §1

With O=P1(O)OC2C3OP(=O)(O)OP(=O)(O)OC3C3OP(=O)(O)OP(=O)(O)OC3C2OP(=O)(O)O1 (centres unmarked) [ITPP, inositol-tripyrophosphate] the “enhancement of the effort capacity” value (Effort capacity test) was “up to 100%”, the “time until the basal value of the RBC count is restored” value ([1]; after ingestion, once ΔP50 becomes 0%) was 12 days and the “number of RBCs” value ([1]; oral ingestion for 4 days) was “reduced significantly”. For the same compound, the “number of white blood cells versus other groups” value ([1]; oral ingestion for 4 days) was “no major differences”, the “RBC × 10^6/mm^3 (day 7)” value ([1]; single mouse, oral in water for 4 days, day 7, day 0 count 8.9-11.8) was 6.60 10^6/mm^3 and 5.73 10^6/mm^3 and 6.35 10^6/mm^3 and 5.64 10^6/mm^3 and 5.45 10^6/mm^3 and 8.76 10^6/mm^3 and 7.70 10^6/mm^3 and 6.54 10^6/mm^3 (2×) and the tolerability ([2]; ip, concentrations up to 150 mM, no animal died) was “well tolerated”. For the same compound, the tolerability ([2]; mice, concentration of 120 mM) was “well tolerated”, the “time for P50 values to return to control values” (circulating RBC; ingestion stopped on day 4) was no more than 12 days and the “time lag before the maximum P50 shift is attained” value (circulating RBC; oral, 27 mM) was “about 48 hrs”. For the same compound, the “right shift of P50” value (circulating RBC; oral, 20 g/L (27 mM) in drinking water over 4 days) was “up to 31%”, the “P50 day 7, %” value (circulating RBC; single mouse, oral in water for 4 days, day 7) was 13% and 14% and 20% (2×) and 16% (2×) and 15% and 7% and 9% and the “P50 day 10, %” value (circulating RBC; single mouse, oral in water for 4 days, day 10) was 10% (3×) and 6% and 12% and 16% and 8% and 11% and 9%. The “time at which the P50 shift appears after inoculation” value (circulating RBCs; ip inoculation) was 2 h, the “P50 Shift %, 2 h, Mean +/- SD” value (circulating RBCs; 45 mM) was 11.8 +/− 1.16% and the “P50 Shift %, 24 h, Mean +/- SD” value (circulating RBCs; 45 mM) was 13.6 +/− 1.02%. The “P50 Shift %, 2 h” value (circulating RBCs; 45 mM) was 10% and 13% (2×) and 12% and 11%, the “P50 Shift %, 24 h” value (circulating RBCs; 45 mM) was 8% and the “P50 Shift %, 2 h, Mean +/- SD” value (circulating RBCs; 60 mM) was 16.9 +/− 3.48%. The “P50 Shift %, 24 h, Mean +/- SD” value (circulating RBCs; 60 mM) was 17.2 +/− 2.1%, the “P50 Shift %, 2 h” value (circulating RBCs; 60 mM) was 12% and 14% and 17% and 21% and 20.5% and the “P50 Shift %, 24 h” value (circulating RBCs; 60 mM) was 14% and 16% and 17% and 20% and 19%. For the same compound, the “P50 Shift %, 2 h, Mean +/- SD” value (circulating RBCs; 120 mM) was 26.0 +/− 2.28%, the “P50 Shift %, 24 h, Mean +/- SD” value (circulating RBCs; 120 mM) was 24.8 +/− 2.7% and the “P50 Shift %, 2 h” value (circulating RBCs; 120 mM) was 28% and 29% and 24% and 26% and 23%. The “P50 Shift %, 24 h” value (circulating RBCs; 120 mM) was 28% (2×) and 22% (2×) and 24%, the “P50 Shift %, 2 h, Mean +/- SD” value (circulating RBCs; 150 mM) was 27.0 +/− 1.78% and the “P50 Shift %, 24 h, Mean +/- SD” value (circulating RBCs; 150 mM) was 25.8 +/− 2.78%. The “P50 Shift %, 2 h” value (circulating RBCs; 150 mM) was 26% (2×) and 28% and 30% and 25% and the “P50 Shift %, 24 h” value (circulating RBCs; 150 mM) was 25% and 26% and 31% and 24% and 23%.
